Reference: EP1247803A2, “Indolinone compounds suitable for modulation of protein kinases” (Sugen, Inc., priority 1996, dated 1998)

What was measured:
MET = MET biochemical kinase assay; parameters: species or system human; concentration or dose not given beside the values
Method in brief: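 Plates coated with anti-rabbit Fc bind a rabbit anti-MET antibody that captures receptor from cell lysates; unbound protein is washed off before compound and ATP-containing kinase buffer go in.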

PDGF-R = PDGF-R (Homo sapiens, UniProt P09619); assay: PDGF-R ELISA; type: cell-based
Sequence of PDGF-R (P09619 33-1106, species assumed): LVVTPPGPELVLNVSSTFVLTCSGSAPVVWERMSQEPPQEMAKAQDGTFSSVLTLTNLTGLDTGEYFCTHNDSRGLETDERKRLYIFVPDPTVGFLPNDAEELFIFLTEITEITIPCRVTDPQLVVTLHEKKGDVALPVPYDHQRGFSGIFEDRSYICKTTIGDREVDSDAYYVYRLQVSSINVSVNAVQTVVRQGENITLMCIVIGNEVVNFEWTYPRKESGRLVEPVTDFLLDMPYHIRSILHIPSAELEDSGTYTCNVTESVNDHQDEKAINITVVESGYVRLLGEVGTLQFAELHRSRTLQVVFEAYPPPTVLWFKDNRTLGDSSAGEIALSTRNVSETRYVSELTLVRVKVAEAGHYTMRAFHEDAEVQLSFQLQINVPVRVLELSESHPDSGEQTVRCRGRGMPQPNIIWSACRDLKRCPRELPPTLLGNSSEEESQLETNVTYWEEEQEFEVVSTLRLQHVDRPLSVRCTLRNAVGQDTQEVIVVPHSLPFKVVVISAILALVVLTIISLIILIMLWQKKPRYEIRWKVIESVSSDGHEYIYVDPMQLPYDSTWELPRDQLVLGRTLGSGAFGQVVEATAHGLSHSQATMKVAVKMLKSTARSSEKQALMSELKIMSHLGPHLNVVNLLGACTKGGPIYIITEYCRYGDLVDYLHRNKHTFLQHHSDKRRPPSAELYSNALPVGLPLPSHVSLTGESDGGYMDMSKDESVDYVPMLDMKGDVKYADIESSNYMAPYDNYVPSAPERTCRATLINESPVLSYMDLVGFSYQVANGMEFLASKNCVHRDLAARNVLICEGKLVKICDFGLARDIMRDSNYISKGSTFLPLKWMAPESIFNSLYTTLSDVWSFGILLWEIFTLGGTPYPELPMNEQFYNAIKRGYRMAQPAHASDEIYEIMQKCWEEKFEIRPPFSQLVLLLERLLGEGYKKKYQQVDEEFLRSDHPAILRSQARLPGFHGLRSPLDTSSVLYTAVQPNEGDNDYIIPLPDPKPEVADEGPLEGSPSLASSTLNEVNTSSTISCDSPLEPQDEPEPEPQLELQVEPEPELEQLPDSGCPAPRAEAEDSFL
Excerpt: A PDGF-R ELISA is described in International Patent Publication No. WO 96/40116, published December 19, 1996 by Tang et al.

EGFR = target: T1, EGFR (Homo sapiens, UniProt P00533); assay: EGFR ELISA assay (in vitro kinase activity, EGFR captured from A431 cell lysate); type: biochemical; parameters: concentration or dose not given beside the values
T1 construct: Add 7 ug A431 cell lysate per well (EGFR source); endogenous in cells; host or cells: A431
T1 sequence (P00533 25-1210): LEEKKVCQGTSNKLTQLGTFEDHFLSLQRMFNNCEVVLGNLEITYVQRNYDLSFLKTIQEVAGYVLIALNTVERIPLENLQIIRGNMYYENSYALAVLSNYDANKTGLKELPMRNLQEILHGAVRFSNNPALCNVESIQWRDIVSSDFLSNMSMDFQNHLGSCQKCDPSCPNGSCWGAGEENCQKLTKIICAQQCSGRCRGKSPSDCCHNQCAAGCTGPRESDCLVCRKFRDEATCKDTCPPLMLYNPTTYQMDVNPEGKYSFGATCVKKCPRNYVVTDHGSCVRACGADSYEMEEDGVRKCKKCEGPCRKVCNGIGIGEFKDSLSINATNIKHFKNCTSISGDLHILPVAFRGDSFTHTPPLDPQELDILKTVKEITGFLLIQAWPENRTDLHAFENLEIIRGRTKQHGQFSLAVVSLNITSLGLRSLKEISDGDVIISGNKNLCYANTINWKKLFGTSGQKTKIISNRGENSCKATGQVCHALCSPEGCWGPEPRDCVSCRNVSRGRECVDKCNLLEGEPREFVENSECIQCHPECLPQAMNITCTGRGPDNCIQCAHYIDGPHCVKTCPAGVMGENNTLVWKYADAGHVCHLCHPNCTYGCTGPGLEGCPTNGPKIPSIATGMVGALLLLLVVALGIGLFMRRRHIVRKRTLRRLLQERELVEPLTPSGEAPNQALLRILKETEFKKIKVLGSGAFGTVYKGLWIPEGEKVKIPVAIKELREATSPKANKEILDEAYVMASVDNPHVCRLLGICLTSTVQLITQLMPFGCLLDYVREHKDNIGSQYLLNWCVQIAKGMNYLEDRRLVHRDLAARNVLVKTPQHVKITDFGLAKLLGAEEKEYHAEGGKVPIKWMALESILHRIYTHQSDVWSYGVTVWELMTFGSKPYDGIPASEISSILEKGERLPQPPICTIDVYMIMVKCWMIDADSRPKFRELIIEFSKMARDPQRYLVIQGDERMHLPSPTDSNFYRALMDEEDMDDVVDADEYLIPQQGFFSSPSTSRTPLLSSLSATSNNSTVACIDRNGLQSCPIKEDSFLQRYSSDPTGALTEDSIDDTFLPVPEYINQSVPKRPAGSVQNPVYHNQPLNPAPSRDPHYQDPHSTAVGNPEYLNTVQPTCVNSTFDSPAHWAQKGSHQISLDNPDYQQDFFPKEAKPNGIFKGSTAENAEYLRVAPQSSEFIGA
Method in brief: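 EGFR from A431 lysate was captured on plates coated with anti-EGFR antibody. Compounds were added 30 min before a 5 min phosphorylation with 3 µM ATP/5 mM MnCl2, which was stopped with 20 mM EDTA. Phosphotyrosine was detected with rabbit anti-phosphotyrosine, then a peroxidase-conjugated secondary and ABTS/H2O2, read at 410 nm.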

| SMILES | Met Kinase % Inhibition (MET) [%] | PDGF Kinase %Inhibition (PDGF-R) [%] | Biochem EGFR %Inhibition (EGFR) [%] |
| --- | --- | --- | --- |
| Cc1ccc(C=C2C(=O)Nc3ccc(S(=O)(=O)N4CCOCC4)cc32)o1 [10725/F04] | 38.1 | -4.6 | -49.6 |
| Cc1cc(C=C2C(=O)Nc3ccc(S(=O)(=O)N4CCOCC4)cc32)[nH]n1 [10725/F05] | 15.5 | -5.6 | -18.9 |
| COc1cc(C)cc(O)c1C=C1C(=O)Nc2ccc(S(=O)(=O)N3CCOCC3)cc21 [10725/F06] | 41.8 | 14.1 | -37.8 |
| O=CN1CCN(c2ccc(C=C3C(=O)Nc4ccc(S(=O)(=O)N5CCOCC5)cc43)cc2)CC1 [10725/F07] | 67.8 | 15.0 | 16.4 |
| O=C1Nc2ccc(S(=O)(=O)N3CCOCC3)cc2C1=Cc1ccc(N2CCOCC2)cc1 [10725/F08] | 72.2 | 28.9 | 15.4 |
| COC(=O)Cc1c(Cl)[nH]c(C=C2C(=O)Nc3ccc(S(=O)(=O)N4CCOCC4)cc32)c1C(=O)OC [10725/F09] | 48.5 | 28.4 | 32.2 |
| O=C1Nc2ccc(S(=O)(=O)N3CCOCC3)cc2C1=Cc1c(Br)cnn1-c1ccc(Cl)cc1 [10725/F10] | 14.2 | 17.9 | 3.7 |
| O=C1Nc2ccc(S(=O)(=O)N3CCOCC3)cc2C1=Cc1c[nH]cn1 [10725/F11] | 25.7 | 20.3 | 20.8 |
| O=C1Nc2ccc(CCCl)cc2C1=Cc1sccc1Br [10725/G02] | 30.8 | -11.8 | -20.5 |
| COc1ccc(Br)c(C=C2C(=O)Nc3ccc(CCCl)cc32)c1O [10725/G03] | 58.6 | -6.5 | -2.5 |
| Cc1ccc(C=C2C(=O)Nc3ccc(CCCl)cc32)o1 [10725/G04] | 47.1 | -8.9 | -12.3 |
| Cc1cc(C=C2C(=O)Nc3ccc(CCCl)cc32)[nH]n1 [10725/G05] | 15.6 | 7.4 | 68.7 |
| COc1cc(C)cc(O)c1C=C1C(=O)Nc2ccc(CCCl)cc21 [10725/G06] | 35.8 | 27.5 | -19.9 |
| O=CN1CCN(c2ccc(C=C3C(=O)Nc4ccc(CCCl)cc43)cc2)CC1 [10725/G07] | 39.7 | 23.7 | -25.8 |
| O=C1Nc2ccc(CCCl)cc2C1=Cc1ccc(N2CCOCC2)cc1 [10725/G08] | 47.3 | 8.3 | -13.7 |
| COC(=O)Cc1c(Cl)[nH]c(C=C2C(=O)Nc3ccc(CCCl)cc32)c1C(=O)OC [10725/G09] | 4.7 | 43.8 | 6.5 |
| O=C1Nc2ccc(CCCl)cc2C1=Cc1c(Br)cnn1-c1ccc(Cl)cc1 [10725/G10] | 27.7 | 44.7 | 17.8 |
| O=C1Nc2ccc(CCCl)cc2C1=Cc1c[nH]cn1 [10725/G11] | 25.7 | 22.2 | -32.4 |
| CCOC(=O)c1[nH]c(C=C2C(=O)Nc3c(Br)cc(Br)cc32)c(C(=O)OC)c1C [10726/A03] | 70.1 | 4.3 | -12.5 |
| Cc1cc(C=C2C(=O)Nc3c(Br)cc(Br)cc32)cc(C(C)(C)C)c1O [10726/A04] | 85.7 | 44.2 | 40.8 |

| SMILES | Met Kinase % Inhibition (MET) [%] | PDGF Kinase %Inhibition (PDGF-R) [%] | Biochem EGFR %Inhibition (EGFR) [%] |
| --- | --- | --- | --- |
| O=C1Nc2c(Br)cc(Br)cc2C1=Cc1ccc(Br)o1 [10726/A05] | 75.2 | 22.1 | -28.4 |
| Cc1cn(C)cc1C=C1C(=O)Nc2c(Br)cc(Br)cc21 [10726/A06] | 54.7 | 22.1 | 0.2 |
| O=C1Nc2c(Br)cc(Br)cc2C1=Cc1cc(O)c2c(c1O)CCCC2 [10726/A07] | 101.4 | -36.8 | 88.7 |
| O=C1Nc2ccc(F)cc2C1=C1C(=O)Nc2c(Br)cc(Br)cc21 [10726/A08] | 63.1 | 10.7 | -28.4 |
| O=C1Nc2ccccc2C1=C1C(=O)Nc2c(Br)cc(Br)cc21 [10726/A09] | 70.8 | 16.4 | -6.3 |
| CCc1ccc(C=C2C(=O)Nc3c(Br)cc(Br)cc32)s1 [10726/A10] | 58.9 | 8.1 | 26.5 |
| COc1ccc(C=C2C(=O)Nc3c(Br)cc(Br)cc32)cc1 [10726/A11] | 70.8 | 23.3 | 6.2 |
| CCOC(=O)c1[nH]c(C=C2C(=O)Nc3ccc(I)cc32)c(C(=O)OC)c1C [10726/B03] | 81.1 | 16.4 | 3.5 |
| Cc1cc(C=C2C(=O)Nc3ccc(I)cc32)cc(C(C)(C)C)c1O [10726/B04] | 78.9 | 39.1 | 71.1 |
| O=C1Nc2ccc(I)cc2C1=Cc1ccc(Br)o1 [10726/B05] | 96.8 | 27.1 | 49.0 |
| Cc1cn(C)cc1C=C1C(=O)Nc2ccc(I)cc21 [10726/B06] | 76.1 | 34.1 | 6.6 |
| O=C1Nc2ccc(I)cc2C1=Cc1cc(O)c2c(c1O)CCCC2 [10726/B07] | 98.5 | -59.5 | 72.4 |
| O=C1Nc2ccc(F)cc2C1=C1C(=O)Nc2ccc(I)cc21 [10726/B08] | 60.2 | 24.6 | 23.6 |
| CCc1ccc(C=C2C(=O)Nc3ccc(I)cc32)s1 [10726/B10] | 58.5 | 6.2 | 40.8 |
| COc1ccc(C=C2C(=O)Nc3ccc(I)cc32)cc1 [10726/B11] | 64.4 | 23.3 | 39.4 |
| CCOC(=O)c1[nH]c(C=C2C(=O)Nc3ccc(Br)c(C)c32)c(C(=O)OC)c1C [10726/C03] | 38.9 | 28.4 | 29.8 |
| Cc1cc(C=C2C(=O)Nc3ccc(Br)c(C)c32)cc(C(C)(C)C)c1O [10726/C04] | 91.7 | 36.6 | 58.4 |
| Cc1c(Br)ccc2c1C(=Cc1ccc(Br)o1)C(=O)N2 [10726/C05] | 58.0 | 25.2 | 16.7 |
| Cc1cn(C)cc1C=C1C(=O)Nc2ccc(Br)c(C)c21 [10726/C06] | 42.6 | 36.0 | -0.9 |
| Cc1c(Br)ccc2c1C(=Cc1cc(O)c3c(c1O)CCCC3)C(=O)N2 [10726/C07] | 84.9 | -67.7 | 40.8 |
